Assay results from US8993565B2, “(6-oxo-1,6-dihydropyrimidin-2-yl)amide derivatives, preparation thereof and pharmaceutical use thereof as AKT(PKB) phosphorylation inhibitors” (Sanofi, priority 2009, dated 2015).

Tested on: AKT protein phosphorylated on serine 473 (P-AKT-S473)
Test: Study of pAKT expression in PC3 human prostate carcinoma cells measured by the MSD Multi-spot Biomarker Detection technique (Test B)
Assay type: cell-based
Settings: PC-3, inhibition of AKT phosphorylation (P-AKT-S473), MSD sandwich immunoassay, 1 to 2 h incubation, absolute IC50, mean of 2 experiments
Procedure: The inhibitory activity of the molecules on AKT phosphorylation is measured either by western blotting using the technique described below, or by the MSD Multi-spot Biomarker detection technique from Meso Scale Discovery also described below.
Study of pAKT Expression in PC3 Human Prostate Carcinoma Cells Measured by the MSD Multi-Spot Biomarker Detection Technique from Meso Scale Discovery (Test B):
The primary antibody specific for P-AKT-S473 (Kit #K151CAD) is coated on to an electrode in each well of the 96-well plates of the MSD, kit: after the addition of a protein lysate to each well, the signal is visualised by adding a secondary detection antibody labelled with an electrochemoluminescent compound. The procedure followed is that described in the kit.
On day 2, the cells are incubated in the presence or absence of the test products for 1 to 2 h at 37° C. in the presence of 5% of CO2. The molecules, diluted in dimethyl sulphoxide (DMSO Sigma #D2650), are added from a 20-times concentrated stock solution, the final percentage of DMSO being 0.1%. The molecules are tested either at a single concentration of less than or equal to 10 μM, or at increasing concentrations in a range that can extend from less than 1 nM to 10 μM.
After this incubation, the cells are lysed for the preparation of the proteins. […] At this stage, the plates containing the lysates can be stored at −20° C. or at −80° C.
The wells of the 96-well plates of the MSD kit are saturated for 1 h at ambient temperature with the blocking solution of the MSD kit. Four washes are carried out with 150 μl of Tris Wash Buffer of the MSD kit. The lysates previously prepared are transferred into the 96-well multi-spot plates of the MSD kit and incubated for 1 h at ambient temperature, with shaking. Four washes are carried out with 150 μl of Tris Wash Buffer of the MSD kit. 25 μl of the MSD sulfo-tag detection antibody solution are added to the wells and incubated for 1 h at ambient temperature, with shaking. Four washes are carried out with 150 μl of Tris Wash Buffer of the MSD kit. 150 μl of Read Buffer of the MSD kit are added to the wells and the plates are read immediately on the S12400 instrument from Meso Scale Discovery.
The instrument measures a signal for each well. Wells without cells and containing the lysis buffer serve to determine the background noise that will be subtracted from all the measurements (min). The wells containing cells in the absence of product and in the presence of 0.1% DMSO are considered to be the 100% signal (max). The percentage inhibition is calculated for each concentration of test product according to the following formula: (1-((test-min)(max-min)))×100.
2 independent experiments make it possible to calculate the mean of the IC50 values.

Row | SMILES | IC50 [nM]
1 | C[C@H]1CN(C(=O)Cc2nc(N3CCOCC3)cc(=O)[nH]2)c2ccccc21 [Example 126, 2-{2-[(3R)-3-methyl-2,3-di hydro-1H-indol-1-yl]-2-oxoethyl}-6-(morpholin-4-yl)pyrimidin-4(3H)-one] | 57
2 | O=C(Cc1nc(N2CCOCC2)cc(=O)[nH]1)Nc1cccc2sccc12 [Example 105, N-(1-benzothiophen-4-yl)-2-[4-(morpholin-4-yl)-6-oxo-1,6-dihydropyrimidin-2-yl]acetamide] | 15
3 | Cc1cccc2c1CCN2C(=O)Cc1nc(N2CCOCC2)cc(=O)[nH]1 [Example 100, 2-[2-(4-methyl-2,3-dihydro-1H-indol-1-yl)-2-oxoethyl]-6-(morpholin-4-yl)pyrimidin-4(3H)-one] | 3
4 | O=C(Cc1nc(N2CCOCC2)cc(=O)[nH]1)Nc1ccsc1 [Example 7, 2-[4-(morpholin-4-yl)-6-oxo-1,6-dihydropyrimidin-2-yl]-N-(thiophen-3-yl)acetamide] | 23
5 | O=C(Cc1nc(N2CCOCC2)cc(=O)[nH]1)N1CCc2ccc(F)cc21 [Example 95, 2-[2-(6-fluoro-2,3-dihydro-′1H-indol-1-yl)-2-oxoethyl]-6-(morpholin-4-yl)pyrimidin-4(3H)-one] | 35
6 | C#Cc1cc(NC(=O)Cc2nc(N3CCOCC3)cc(=O)[nH]2)ccc1F [Example 90, N-(3-ethynyl-4-fluorophenyl)-2-[4-(morpholin-4-yl)-6-oxo-1,6-dihydropyrimidin-2-yl]acetamide] | 14
7 | N#Cc1cccc(NC(=O)Cc2nc(N3CCOCC3)cc(=O)[nH]2)c1O [Example 152, N-(3-cyano-2-hydroxyphenyl)-2-[4-(morpholin-4-yl)-6-oxo-1,6-dihydropyrimidin-2-yl]acetamide] | 938
8 | Cc1cc(F)ccc1NC(=O)Cc1nc(N2CCOCC2)cc(=O)[nH]1 [Example 31, N-(4-fluoro-2-methylphenyl)-2-[4-(morpholin-4-yl)-6-oxo-1,6-dihydropyrimidin-2-yl]acetamide] | 58
9 | O=C(Cc1nc(N2CCOCC2)cc(=O)[nH]1)Nc1cccc(Br)c1O [Example 142, N-(3-bromo-2-hydroxyphenyl)-2-[4-(morpholin-4-yl)-6-oxo-1,6-dihydropyrimidin-2-yl]acetamide] | 22
10 | O=C(Cc1nc(N2CCOCC2)cc(=O)[nH]1)Nc1ccc(F)c(F)c1F [Example 53, 2-[4-(morpholin-4-yl)-6-oxo-1,6-dihydropyrimidin-2-yl]-N-(2,3,4-trifluorophenyl)acetamide] | 66
11 | Cn1c(CC(=O)N2CCc3ccccc32)nc(N2CCOCC2)cc1=O [Example 79, 2-[2-(2,3-dihydro-1 H-indol-1-yl)-2-oxoethyl]-3-methyl-6-(morpholin-4-yl)pyrimidin-4(3 H)-one] | 20
12 | O=C(Cc1nc(N2CCOCC2)cc(=O)[nH]1)Nc1cccc2[nH]cnc12 [Example 139, N-(1H-benzimidazol-4-yl)-2-[4-(morpholin-4-yl)-6-oxo-1,6-dihydropyrimidin-2-yl]acetamide] | 3000
13 | O=C(Cc1nc(N2CCOCC2)cc(=O)[nH]1)N1CCc2c1ccc(F)c2F [Example 94, 2-[2-(4,5-difluoro-2,3-dihydro-1H-indol-1-yl)-2-oxoethyl]-6-(morpholin-4-yl)pyrimidin-4(3H)-one] | 11
14 | Cn1c(CC(=O)Nc2ccc(F)c(C(F)F)c2)nc(N2CCOCC2)cc1=O [Example 97, N-[3-(difluoromethyl)-4-fluorophenyl]-2-[1-methyl-4-(morpholin-4-yl)-6-oxo-1,6-dihydropyrimidin-2-yl]acetamide] | 260
15 | O=C(Cc1nc(N2CCOCC2)cc(=O)[nH]1)Nc1cccc(OC2CCCC2)c1 [Example 49, N-[3-(cyclopentyloxy)phenyl]-2-[4-(morpholin-4-yl)-6-oxo-1,6-dihydropyrimidin-2-yl]acetamide] | 146
16 | O=C(Cc1nc(N2CCOCC2)cc(=O)[nH]1)Nc1ccccc1OCc1cccnc1 [Example 113, 2-[4-(morpholin-4-yl)-6-oxo-1,6-dihydropyrimidin-2-yl]-N-[2-(pyridin-3-ylmethoxy)phenyl]acetamide] | 664
17 | COC(=O)c1cccc(NC(=O)Cc2nc(N3CCOCC3)cc(=O)[nH]2)c1O [Example 140, methyl 2-hydroxy-3-(([4-(morpholin-4-yl)-6-oxo-1,6-dihydropyrimidin-2-yl]acetyl)amino)benzoate] | 302
18 | Cn1c(CC(=O)N2CCc3c(O)cccc32)nc(N2CCOCC2)cc1=O [Example 109, 2-[2-(4-hydroxy-2,3-dihydro-1H-indol-1-yl)-2-oxoethyl]-3-methyl-6-(morpholin-4-yl)pyrimidin-4(3H)-one] | 43
19 | O=C(Cc1nc(N2CCOCC2)cc(=O)[nH]1)Nc1cccc(C(F)(F)F)c1O [Example 153, N-[2-hydroxy-3-(trifluoromethyl)phenyl]-2-[4-(morpholin-4-yl)-6-oxo-1,6-dihydropyrimidin-2-yl]acetamide] | 49
20 | O=C(Cc1nc(N2CCOCC2)cc(=O)[nH]1)N1CCc2c(F)cc(F)cc21 [Example 92, 2-[2-(4,6-difluoro-2,3-dihydro-1H-indol-1-yl)-2-oxoethyl]-6-(morpholin-4-yl)pyrimidin-4(3H)-one] | 57
21 | O=C(Cc1nc(N2CCOCC2)cc(=O)[nH]1)Nc1ccc(F)cc1OCC1CCNCC1 [Example 133, N-[4-fluoro-2-(piperidin-4-ylmethoxy)phenyl]-2-[4-(morpholin-4-yl)-6-oxo-1,6-dihydropyrimidin-2-yl]acetamide] | 174
22 | CN(C)C[C@@H]1CN(C(=O)Cc2nc(N3CCOCC3)cc(=O)[nH]2)c2ccccc21 [Example 137, 2-(2-{(3R)-3-[(dimethylamino)methyl]-2,3-dihydro-1H-indol-1-yl}-2-oxoethyl)-6-(morpholin-4-yl)pyrimidin-4(3H)-one] | 68
